Molecular target: LRRK2 G2019S (Homo sapiens, UniProt Q5S007, G2019S)
Test: LRRK2 G2019S Km ATP LanthaScreen assay
Type: biochemical
Conditions: not given

Sequence of LRRK2 G2019S (Q5S007 whole entry G2019S): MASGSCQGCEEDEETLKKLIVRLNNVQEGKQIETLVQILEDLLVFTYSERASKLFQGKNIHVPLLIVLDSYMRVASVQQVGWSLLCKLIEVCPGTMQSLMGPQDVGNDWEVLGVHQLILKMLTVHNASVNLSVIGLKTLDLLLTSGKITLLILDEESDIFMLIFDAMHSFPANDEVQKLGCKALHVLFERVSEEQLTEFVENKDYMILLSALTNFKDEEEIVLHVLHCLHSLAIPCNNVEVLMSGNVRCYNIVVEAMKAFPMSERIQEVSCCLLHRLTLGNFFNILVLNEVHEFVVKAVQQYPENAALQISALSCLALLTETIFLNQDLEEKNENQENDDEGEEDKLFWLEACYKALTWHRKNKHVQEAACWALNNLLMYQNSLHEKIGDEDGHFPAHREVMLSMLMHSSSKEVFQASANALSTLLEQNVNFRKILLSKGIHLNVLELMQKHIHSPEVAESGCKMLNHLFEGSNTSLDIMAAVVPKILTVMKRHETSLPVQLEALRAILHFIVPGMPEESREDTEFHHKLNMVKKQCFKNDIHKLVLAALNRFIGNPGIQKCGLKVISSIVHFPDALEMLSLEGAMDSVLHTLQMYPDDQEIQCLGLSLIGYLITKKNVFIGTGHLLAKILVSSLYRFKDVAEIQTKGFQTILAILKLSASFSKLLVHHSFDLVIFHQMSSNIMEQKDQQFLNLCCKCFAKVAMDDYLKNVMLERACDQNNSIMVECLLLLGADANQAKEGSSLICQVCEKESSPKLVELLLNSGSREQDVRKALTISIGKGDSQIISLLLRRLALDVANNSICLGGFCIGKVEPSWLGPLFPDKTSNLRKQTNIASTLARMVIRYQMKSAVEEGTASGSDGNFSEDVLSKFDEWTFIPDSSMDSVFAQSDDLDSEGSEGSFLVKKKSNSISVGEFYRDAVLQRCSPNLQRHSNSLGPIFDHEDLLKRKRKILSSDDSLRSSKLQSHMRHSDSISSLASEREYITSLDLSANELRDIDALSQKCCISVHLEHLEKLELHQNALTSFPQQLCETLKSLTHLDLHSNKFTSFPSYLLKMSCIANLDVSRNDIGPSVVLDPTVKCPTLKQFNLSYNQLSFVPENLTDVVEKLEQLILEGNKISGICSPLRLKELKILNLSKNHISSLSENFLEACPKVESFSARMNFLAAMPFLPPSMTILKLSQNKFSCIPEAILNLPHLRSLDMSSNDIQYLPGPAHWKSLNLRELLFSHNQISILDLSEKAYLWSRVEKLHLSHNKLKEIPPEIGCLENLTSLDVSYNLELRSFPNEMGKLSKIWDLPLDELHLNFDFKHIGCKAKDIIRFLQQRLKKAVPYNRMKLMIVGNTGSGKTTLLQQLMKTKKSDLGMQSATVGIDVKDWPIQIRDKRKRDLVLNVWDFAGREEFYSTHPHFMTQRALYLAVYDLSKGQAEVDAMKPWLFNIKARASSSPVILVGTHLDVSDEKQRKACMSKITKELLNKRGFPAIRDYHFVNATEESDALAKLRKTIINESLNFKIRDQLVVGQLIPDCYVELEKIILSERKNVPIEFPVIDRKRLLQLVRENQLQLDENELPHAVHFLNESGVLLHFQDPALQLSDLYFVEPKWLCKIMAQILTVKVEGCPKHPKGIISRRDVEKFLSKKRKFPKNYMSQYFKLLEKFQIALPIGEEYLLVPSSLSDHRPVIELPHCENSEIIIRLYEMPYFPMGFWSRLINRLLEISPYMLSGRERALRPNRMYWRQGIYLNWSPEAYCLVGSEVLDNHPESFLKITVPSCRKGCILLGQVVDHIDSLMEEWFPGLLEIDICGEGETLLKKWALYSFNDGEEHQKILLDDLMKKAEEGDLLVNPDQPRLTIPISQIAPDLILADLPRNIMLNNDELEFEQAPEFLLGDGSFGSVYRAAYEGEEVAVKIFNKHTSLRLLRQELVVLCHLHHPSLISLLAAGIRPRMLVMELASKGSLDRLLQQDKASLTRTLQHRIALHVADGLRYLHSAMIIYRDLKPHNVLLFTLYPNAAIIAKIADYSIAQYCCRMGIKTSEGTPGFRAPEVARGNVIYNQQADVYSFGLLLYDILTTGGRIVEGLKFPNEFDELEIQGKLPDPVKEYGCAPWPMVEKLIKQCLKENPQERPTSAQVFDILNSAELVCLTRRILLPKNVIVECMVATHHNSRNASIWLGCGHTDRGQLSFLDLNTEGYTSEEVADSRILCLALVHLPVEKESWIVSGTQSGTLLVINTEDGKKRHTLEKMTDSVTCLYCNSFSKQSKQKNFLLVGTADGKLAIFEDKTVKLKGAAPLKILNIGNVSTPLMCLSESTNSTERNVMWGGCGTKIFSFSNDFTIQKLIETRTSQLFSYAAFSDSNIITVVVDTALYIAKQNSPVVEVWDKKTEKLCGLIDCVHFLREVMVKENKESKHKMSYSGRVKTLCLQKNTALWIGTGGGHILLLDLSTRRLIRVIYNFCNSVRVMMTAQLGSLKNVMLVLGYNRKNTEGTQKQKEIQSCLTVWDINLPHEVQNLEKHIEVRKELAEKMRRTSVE

Compound | LRRK2 pIC50
O=C(Nc1cc2cc(C3CCN(C4COC4)CC3)c(Cl)cc2cn1)C1CC12CC2 (centres unmarked) [Ex-9.1] | 8.69

Same assay, conditions: read-out: LRRK2 pIC50 (converted)

Compound | IC50 [nM]
CC1(C)CCC(C(=O)Nc2cc3cc(C4CCC(N5CCC(F)C5)CC4)c(Cl)cc3cn2)CO1 (single isomer, unassigned) [Ex-5.23, N-(7-chloro-6-(4-(3-fluoropyrrolidin-1-yl)cyclohexyl)isoquinolin-3-yl)-6,6-dimethyltetrahydro-2H-pyran-3-carboxamide] | 3020
Cn1cc(C(C)(C)C(=O)Nc2cc3cc(C4CCN(C5(C)COCC5F)CC4)c(Cl)cc3cn2)cn1 (single isomer, unassigned) [Ex-6.55, N-(7-chloro-6-(1-(4-fluoro-3-methyltetrahydrofuran-3-yl)piperidin-4-yl)isoquinolin-3-yl)-2-methyl-2-(1-methyl-1H-pyrazol-4-yl)propenamide] | 447
N#CC1(c2ccc3cnc(NC(=O)C4CC4c4ccccn4)cc3c2)CC12CC2 (centres unmarked) [Ex-2.40] | 0.575
N#CC1(c2ccc3cnc(NC(=O)C4CC45CCOC5)cc3c2)CC12CC2 (centres unmarked) [Ex-2.66] | 14.5
CC1CC1(C#N)c1ccc2cnc(NC(=O)C3CC3)cc2c1 (single isomer, unassigned) [Ex-18.6, (R or S)-N-(6-(1-cyano-2-methylcyclopropyl)isoquinolin-3-yl)cyclopropanecarboxamide] | 60.3
CCC1C(C(=O)Nc2cc3cc(C4CCC(N5CC(F)C5)CC4)c(Cl)cc3cn2)C1c1cnn(C)c1 (single isomer, unassigned) [Ex-11.8, N-(7-chloro-6-(4-(3-fluoroazetidin-1-yl)cyclohexyl)isoquinolin-3-yl)-2-ethyl-3-(1-methyl-1H-pyrazol-4-yl)cyclopropane-1-carboxamide] | 0.0813
CC1OCCC1N1CCC(c2cc3cc(NC(=O)C4CC4)ncc3cc2Cl)CC1 (single isomer, unassigned) [Ex-9.10, N-(7-chloro-6-(1-(2-methyltetrahydrofuran-3-yl)piperidin-4-yl)isoquinolin-3-yl)cyclopropanecarboxamide] | 38.9
CC1(N2CCC(c3cc4cc(NC(=O)C5CC5c5ccccn5)ncc4cc3Cl)CC2)CCOC1 (single isomer, unassigned) [Ex-6.35, N-(7-chloro-6-(1-(3-methyltetrahydrofuran-3-yl)piperidin-4-yl)isoquinolin-3-yl)-2-(pyridin-2-yl)cyclopropane-1-carboxamide] | 6.61
COCC(C)c1cc2cc(NC(=O)C3CC34CCOCC4)ncc2cc1Cl (single isomer, unassigned) [Ex-9.11, N-(7-chloro-6-(1-methoxypropan-2-yl)isoquinolin-3-yl)-6-oxaspiro[2.5]octane-1-carboxamide] | 44.7
Cn1ncc(C2CC2C(=O)Nc2cc3cc(C4(C#N)CC45CC5)ccc3cn2)c1Cl (centres unmarked) [Ex-2.78] | 16.2
N#CC1(c2ccc3cnc(NC(=O)C4CCC4)cc3c2)CC12CC2 (single isomer, unassigned) [Ex-1.15, (R or S)-N-(6-(1-cyanospiro[2.2]pentan-1-yl)isoquinolin-3-yl)cyclobutanecarboxamide] | 3.24
Cn1ncc(C2CC2C(=O)Nc2cc3cc(C4(C#N)CC45CC5)ccc3cn2)c1Cl (centres unmarked) [Ex-2.79] | 34.7
COC1COCC1N1CCC(c2cc3cc(NC(=O)C4CC45CCOCC5)ncc3cc2Cl)CC1 (single isomer, unassigned) [Ex-6.52, N-(7-chloro-6-(1-(4-methoxytetrahydrofuran-3-yl)piperidin-4-yl)isoquinolin-3-yl)-6-oxaspiro[2.5]octane-1-carboxamide] | 0.2
O=C(Nc1cc2cc(C3CCN(C4COC4)CC3)c(Cl)cc2cn1)C1CC12CCC(F)(F)CC2 (single isomer, unassigned) [Ex-1.8, (R or S)-N-(7-chloro-6-(1-(oxetan-3-yl)piperidin-4-yl)isoquinolin-3-yl)-6,6-difluorospiro[2.5]octane-1-carboxamide] | 21.4
N#CC1(c2ccc3cnc(NC(=O)C4CC45CC5)cc3c2)CC12CC2 (single isomer, unassigned) [Ex-2.1] | 0.871

Results, then the molecule that gave them:

IC50 [nM] | Compound
0.234 | CC1(C)CC(C(=O)Nc2cc3cc(C4CCN(C5(C)COCC5O)CC4)c(Cl)cc3cn2)CO1 (centres unmarked) [Ex-2.29]
0.0813 | Cn1ncc(C2CC2C(=O)Nc2cc3cc(C4CCN(C5(C)COCC5O)CC4)c(Cl)cc3cn2)n1 (racemic) [Ex-20.2, (1R,2R and 1S,2S)-N-(7-chloro-6-(1-(4-hydroxy-3-methyltetrahydrofuran-3-yl)piperidin-4-yl)isoquinolin-3-yl)-2-(2-methyl-2H-1,2,3-triazol-4-yl)cyclopropane-1-carboxamide]
1.17 | CC1(N2CCC(c3cc4cc(NC(=O)C5C6CCOCC65)ncc4cc3Cl)CC2)COCC1O (single isomer, unassigned) [Ex-4.33, N-(7-chloro-6-(1-(4-hydroxy-3-methyltetrahydrofuran-3-yl)piperidin-4-yl)isoquinolin-3-yl)-3-oxabicyclo[4.1.0]heptane-7-carboxamide]
1.82 | CC1(N2CCC(c3cc4cc(NC(=O)C5CC56CCOC6)ncc4cc3Cl)CC2)COCC1F (single isomer, unassigned) [Ex-6.7, (R or S)-N-(7-chloro-6-(1-((3R,4R or 3S,4S)-4-fluoro-3-methyltetrahydrofuran-3-yl)piperidin-4-yl)isoquinolin-3-yl)-5-oxaspiro [2.4] heptane-1-carboxamide]
2.57 | CC1(N2CCC(c3cc4cc(NC(=O)C5CC56CCOCC6)ncc4cc3Cl)C(F)C2)COCC1O (single isomer, unassigned) [Ex-14.6, N-(7-chloro-6-(3-fluoro-1-(4-hydroxy-3-methyltetrahydrofuran-3-yl)piperidin-4-yl)isoquinolin-3-yl)-6-oxaspiro[2.5]octane-1-carboxamide]
9.12 | CC1(N2CCC(c3cc4cc(NC(=O)C56CC(C5)C6)ncc4cc3Cl)CC2)COC1 [Ex-7.7, N-(7-chloro-6-(1-(3-methyloxetan-3-yl)piperidin-4-yl)isoquinolin-3-yl)bicyclo[1.1.1]pentane-1-carboxamide]
0.0813 | CC1(N2CCC(c3cc4cc(NC(=O)C5CCCOC5)ncc4cc3Cl)CC2)COCC1O (centres unmarked) [Ex-2.25]
200 | CC1(N2CCC(c3cc4cc(NC(=O)C5CC5c5cccnc5)ncc4cc3Cl)CC2)COCC1O (single isomer, unassigned) [Ex-4.42, N-(7-chloro-6-(1-(4-hydroxy-3-methyltetrahydrofuran-3-yl)piperidin-4-yl)isoquinolin-3-yl)-2-(pyridin-3-yl)cyclopropane-1-carboxamide]
1.17 | O=C(Nc1cc2cc(C3CCN(C4COCC4O)CC3)c(Cl)cc2cn1)C1CC1 (single isomer, unassigned) [Ex-12.3, N-(7-chloro-6-(1-(4-hydroxytetrahydrofuran-3-yl)piperidin-4-yl)isoquinolin-3-yl)cyclopropanecarboxamide]
0.0813 | CC1(N2CCC(c3cc4cc(NC(=O)C5C6CCOCC65)ncc4cc3Cl)CC2)COCC1F (single isomer, unassigned) [Ex-6.40, N-(7-chloro-6-(1-(4-fluoro-3-methyltetrahydrofuran-3-yl)piperidin-4-yl)isoquinolin-3-yl)-3-oxabicyclo[4.1.0]heptane-7-carboxamide]
